Experimental data taken from patent publication US12691124B2, “Methods of controlling and improving brain health” (ICAHN SCHOOL OF MEDICINE AT MOUNT SINAI, priority 2019, dated 2026).

Columns and labels:
[1] = system: wild-type mice; assay: Classic fear conditioning in wild-type mice; format: in vivo, mouse; conditions: five weeks of daily IBET858 injections
Protocol: […] Albans, VT) as described previously (Schaefer et al., “Control of Cognition and Adaptive Behavior by the GLP/G9a Epigenetic Suppressor Complex,” Neuron 64:678-691 (2009), which is hereby incorporated by reference in its entirety). Briefly, a mouse was placed in the test chamber (house lights on) and allowed to explore freely for 2 min. A white noise (80 dB) was then presented for 30 s, co-terminating with a mild foot shock (2 s, 0.5 mA). Two minutes later the same sequence of auditory cue-shock pairing was repeated. The mouse was removed from the chamber 30 s later and returned to its home cage. Freezing behavior was continuously recorded during the time spent in the test chamber. […] Twenty-four hours later, the mouse was placed back into the test chamber for 5 min and freezing behavior was recorded (context test). Two hours later, the mouse was tested for freezing in response to the auditory cue. Environmental and contextual cues were changed for the auditory cue test. The auditory cue test was divided into two phases: 3 min in the absence of the auditory cue and 3 min of the auditory cue. The time freezing during each test was converted to a percentage of freezing value.
To understand if these cellular and molecular improvements impact behavior, memory was assessed using the classic fear conditioning paradigm.

[2] = system: primary cortical neurons; assay: Axion multielectrode array recording of neuronal firing; format: cell-based, mouse
Protocol: Axion Recordings. A 48-well multielectrode array plate (Axion) was coated with 0.1% PEI for 1 hour at 37 degrees and washed four times with deionized water. Plates were dried overnight at room temperature in a sterile hood. Plates were incubated with 20 ug/ml laminin for one hour at 37 degrees before cells were seeded onto the plate. Primary cortical neurons were plated 50,000 per well. Plates were equilibrated on the Axion Maestro system at 37 degrees C. for 5 minutes before each 10 minute recording session. Baseline activity was recorded at day 7 before cells were treated with either I-BET858 (1 um) or DMSO. Electrical activity was recorded every day until day 21 and then at regular intervals until activity was no longer detected.
Therefore to determine the effect of chronic BET inhibition on electrical activity, neurons were cultured on the Axion Microelectrode array system in the presence of IBET858. Primary cortical neurons first show electrical activity at day 7 which gradually increases over time, peaking around day 14 consistent with published time courses of synaptogenesis and electrical activity in vitro. […] In one experiment, IBET858 treated neurons lived until day 77, 86% longer than control neurons.
One could argue that the protective effect of IBET858 was caused by a decreased sensing of glutamate levels. […] To further explore this hypothesis, neuronal firing in response to a sub-lethal dose of glutamate (50 μM) was measured using the Axion system (FIG. 10A). At day 14, neurons treated with 50 μM glutamate increased their firing rate 127.4+/−44.4% compared to baseline. […] Therefore, it is appropriate to use glutamate as a neuronal death assay.

In the case of `CC(=O)N1c2ccc(-c3ccc(CN4CCCCC4)cc3)cc2[C@H](Nc2ccccc2)CC1C` (stereo in doubt) [IBET858], the contextual recall [1] is reported as “significantly increased”, the “day until which neurons lived, one experiment” value ([2]; 1 μM) is reported as 77 days and the “lifetime longer than control neurons, one experiment” value ([2]; 1 μM) is reported as 86%. For the same compound, the “neuronal survival (firing) after washout” value ([2]; 1 uM for 1 week followed by washout at day 14) was “prolonged neuronal survival that is maintained even in the absence of IBET”, the “activity patterns of long-lived treated neurons” value ([2]; 1 uM from day 7) was “maintain normal activity patterns” and the “day until which neurons continued to fire” value ([2]; 1 μM, control ceased firing on average at day 29) was 45 days. For the same compound, the “increase in firing rate compared to baseline after glutamate” value ([2]; 50 μM glutamate, day 14, control 127.4+/−44.4%) was 129.3+/−26.2%.
